Assay: logP determination by retention times (calibration with alkan-2-ones)
Conditions: mobile phase 0.1% aqueous formic acid and acetonitrile, linear gradient 10% to 95% acetonitrile
[1] = * HPLC reversed-phase C18, 40° C.
[2] = values marked *: HPLC on reversed-phase C 18, 40° C.

Row | Structure (SMILES) | chromatographic logP [1] | chromatographic logP [2] | further results
1 | COCCNc1nc(C)c(-c2ccnc(Nc3cccc([N+](=O)[O-])c3)n2)s1 [Example 781, 4-{2-[(2-methoxyethyl)amino]-4-methyl-1,3-thiazol-5-yl}-N-(3-nitrophenyl)pyrimidine-2-amine] | 1.97 |  | 
2 | Cc1nc(N(C)C)sc1-c1ccnc(Nc2cccc(N3CCCC3=O)c2)n1 [Example 782, 1-[3-({4-[2-(dimethylamine)-4-methyl-1,3-thiazol-5-yl]pyrimidin-2-yl}amino)phenyl]pyrrolidin-2-one] |  |  | logP [1]: 1.65*
3 | COc1ccc(Nc2nccc(-c3sc(N(C)C)nc3C(F)(F)F)n2)cn1 [Example 783, 4-[2-(dimethylamine)-4-(trifluoromethyl)-1,3-thiazol-5-yl]-N-(6-methoxypyridin-3-yl)pyrimidine-2-amine] |  |  | logP [1]: 3.17*
4 | COCCNc1nc(C)c(-c2ccnc(Nc3ccc(OC)nc3)n2)s1 [Example 784, 4-{2-[(2-methoxyethyl)amino]-4-methyl-1,3-thiazol-5-yl}-N-(6-methoxypyridin-3-yl)pyrimidine-2-amine] | 1.45 |  | 
5 | COc1ccc(Nc2nccc(-c3sc(N(C)C)nc3C)n2)cn1 [Example 785, 4-[2-(dimethylamine)-4-methyl-1,3-thiazol-5-yl]-N-(6-methoxypyridin-3-yl)pyrimidine-2-amine] |  |  | logP [1]: 1.55*
6 | COc1cc(Nc2nccc(-c3cnc(-c4ccccc4)s3)n2)cc(OC)c1OC [Example 786, 4-(2-phenyl-1,3-thiazol-5-yl)-N-(3,4,5-trimethoxyphenyl)pyrimidine-2-amine] | 3.37 |  | 
7 | c1ccc(Nc2nccc(-c3cnc(-c4ccccc4)s3)n2)cc1 [Example 787, N-phenyl-4-(2-phenyl-1,3-thiazol-5-yl)pyrimidine-2-amine] | 3.97 |  | 
8 | COc1ccc(Nc2nccc(-c3sc(C)nc3C)n2)cc1 [Example 788, 4-(2,4-dimethyl-1,3-thiazol-5-yl)-N-(4-methoxyphenyl)pyrimidine-2-amine] | 2.34 |  | 
9 | CCc1nc(C)c(-c2ccnc(Nc3ccc(OC)cc3)n2)s1 [Example 789, 4-(2-ethyl-4-methyl-1,3-thiazol-5-yl)-N-(4-methoxyphenyl)pyrimidine-2-amine] | 2.78 |  | 
10 | COc1ccc(Nc2nccc(-c3sc(C)nc3C)n2)cc1O [Example 790, 5-{[4-(2,4-dimethyl-1,3-thiazol-5-yl)pyrimidin-2-yl]amino}-2-methoxyphenol] | 1.79 |  | 
11 | CCc1nc(C)c(-c2ccnc(Nc3ccc(OC)c(O)c3)n2)s1 [Example 791, 5-{[4-(2-ethyl-4-methyl-1,3-thiazol-5-yl)pyrimidin-2-yl]amino}-2-methoxyphenol] | 2.09 |  | 
12 | COc1cc(Nc2nccc(-c3cnc(-c4ccc(Cl)cc4)s3)n2)cc(OC)c1OC [Example 792, 4-[2-(4-chlorophenyl)-1,3-thiazol-5-yl]-N-(3,4,5-trimethoxyphenyl)pyrimidine-2-amine] | 4.12 |  | 
13 | Clc1ccc(-c2ncc(-c3ccnc(Nc4ccccc4)n3)s2)cc1 [Example 793, 4-[2-(4-chlorophenyl)-1,3-thiazol-5-yl]-N-phenylpyrimidine-2-amine] | 4.85 |  | 
14 | CCc1nc(C)c(-c2ccnc(Nc3ccc(Cl)cc3Cl)n2)s1 [Example 794, N-(2,4-dichlorophenyl)-4-(2-ethyl-4-methyl-1,3-thiazol-5-yl)pyrimidine-2-amine] | 4.9 |  | 
15 | Clc1ccc(-c2ncc(-c3ccnc(Nc4cccc(Cl)c4)n3)s2)cc1 [Example 795, N-(3-chlorophenyl)-4-[2-(4-chlorophenyl)-1,3-thiazol-5-yl]pyrimidine-2-amine] | 5.57 |  | 
16 | CCOC(=O)Nc1ccc(Nc2nccc(-c3sc(C(C)C)nc3C)n2)cc1 [Example 796, ethyl-(4-{[4-(2-isopropyl-4-methyl-1,3-thiazol-5-yl)pyrimidin-2-yl]amino}phenyl)carbamate] | 2.18 |  | 
17 | COCCNc1nc(C)c(-c2ccnc(Nc3ccc(OC)c(OC)c3)n2)s1 [Example 800, N-(3,4-dimethoxyphenyl)-4-{2-[(2-methoxyethyl)amino]-4-methyl-1,3-thiazol-5-yl}pyrimidine-2-amine] | 1.55 |  | 
18 | COCCNc1nc(C)c(-c2ccnc(Nc3cc(OC)cc(OC)c3)n2)s1 [Example 801, N-(3,5-dimethoxyphenyl)-4-{2-[(2-methoxyethyl)amino]-4-methyl-1,3-thiazol-5-yl}pyrimidine-2-amine] | 1.96 |  | 
19 | COCCNc1nc(C)c(-c2ccnc(Nc3ccc4c(c3)OCO4)n2)s1 [Example 802, N-1,3-benzodioxol-5-yl-4-{2-[(2-methoxyethyl)amino]-4-methyl-1,3-thiazol-5-yl}pyrimidine-2-amine] | 1.65 |  | 

Row | Structure (SMILES) | chromatographic logP [1] | chromatographic logP [2] | further results
20 | COCCNc1nc(C)c(-c2ccnc(Nc3ccc4c(c3)OCCO4)n2)s1 [Example 803, N-(2,3-dihydro-1,4-benzodioxin-6-yl)-4-{2-[(2-methoxyethyl)amino]-4-methyl-1,3-thiazol-5-yl}pyrimidine-2-amine] | 1.63 |  | 
21 | COCCNc1nc(C)c(-c2ccnc(Nc3ccc(OC)c(Cl)c3)n2)s1 [Example 804, N-(3-chloro-4-methoxyphenyl)-4-{2-[(2-methoxyethyl)amino]-4-methyl-1,3-thiazol-5-yl}pyrimidine-2-amine] | 1.96 |  | 
22 | COCCNc1nc(C)c(-c2ccnc(Nc3ccc(N(C)C)c(Cl)c3)n2)s1 [Example 805, 2-chloro-N4-(4-{2-[(2-methoxyethyl)amino]-4-methyl-1,3-thiazol-5-yl}pyrimidin-2-yl)-N1,N1-dimethylbenzene-1,4-diamine] | 1.57 |  | 
23 | COCCNc1nc(C)c(-c2ccnc(Nc3ccc(C)c([N+](=O)[O-])c3)n2)s1 [Example 806, 4-{2-[(2-methoxyethyl)amino]-4-methyl-1,3-thiazol-5-yl}-N-(4-methyl-3-nitrophenyl)pyrimidine-2-amine] | 2.17 |  | 
24 | COCCNc1nc(C)c(-c2ccnc(Nc3ccc(C#N)cc3)n2)s1 [Example 807, 4-[(4-{2-[(2-methoxyethyl)amino]-4-methyl-1,3-thiazol-5-yl}pyrimidin-2-yl)amino]benzonitrile] | 1.9 |  | 
25 | COCCNc1nc(C)c(-c2ccnc(Nc3ccc(O)cc3)n2)s1 [Example 808, 4-[(4-{2-[(2-methoxyethyl)amino]-4-methyl-1,3-thiazol-5-yl}pyrimidin-2-yl)amino]phenol] |  | 1.22 | 
26 | Cc1nc(NCC2CCCO2)sc1-c1ccnc(Nc2ccc(F)cc2F)n1 (centres unmarked) [Example 809, N-(2,4-difluorophenyl)-4-{4-methyl-2-[(tetrahydrofuran-2-ylmethyl)amino]-1,3-thiazol-5-yl}pyrimidine-2-amine] |  | 2.09 | 
27 | Cc1ccc(Nc2nccc(-c3sc(NCC4CCCO4)nc3C)n2)cc1[N+](=O)[O-] (centres unmarked) [Example 810, N-(4-methyl-3-nitrophenyl)-4-{4-methyl-2-[(tetrahydrofuran-2-ylmethyl)amino]-1,3-thiazol-5-yl}pyrimidine-2-amine] |  | 2.33 | 
28 | CC(=O)c1ccc(Nc2nccc(-c3sc(NCC4CCCO4)nc3C)n2)cc1 (centres unmarked) [Example 816, 1-{4-[(4-{4-methyl-2-[(tetrahydrofuran-2-ylmethyl)amino]-1,3-thiazol-5-yl}pyrimidin-2-yl)amino]phenyl}ethanone] |  | 1.83 | 
29 | COc1ccc(Nc2nccc(-c3sc(NCC4CCCO4)nc3C)n2)cc1OC (centres unmarked) [Example 817, N-(3,4-dimethoxyphenyl)-4-{4-methyl-2-[(tetrahydrofuran-2-ylmethyl)amino]-1,3-thiazol-5-yl}pyrimidine-2-amine] |  | 1.65 | 
30 | CC(=O)Nc1cccc(Nc2nccc(-c3sc(C(C)C)nc3C)n2)c1 [Example 818, N-(3-{[4-(2-isopropyl-4-methyl-1,3-thiazol-5-yl)pyrimidin-2-yl]amino}phenyl)acetamide] |  | 2.26 | 
31 | COc1ccc(Nc2nccc(-c3sc(C(C)C)nc3C)n2)cc1OC [Example 819, N-(3,4-dimethoxyphenyl)-4-(2-isopropyl-4-methyl-1,3-thiazol-5-yl)pyrimidine-2-amine] |  | 2.85 | 
32 | CC(=O)c1ccc(Nc2nccc(-c3sc(C(C)C)nc3C)n2)cc1 [Example 820, 1-(4-{[4-(2-isopropyl-4-methyl-1,3-thiazol-5-yl)pyrimidin-2-yl]amino}phenyl)ethanone] |  | 3.06 | 
33 | COc1ccc(Nc2nccc(-c3sc(C(C)C)nc3C)n2)cc1 [Example 821, 4-(2-isopropyl-4-methyl-1,3-thiazol-5-yl)-N-(4-methoxyphenyl)pyrimidine-2-amine] |  | 3.25 | 
34 | Cc1nc(C(C)C)sc1-c1ccnc(Nc2ccc(N3CCCC3=O)cc2)n1 [Example 831, 1-(4-{[4-(2-isopropyl-4-methyl-1,3-thiazol-5-yl)pyrimidin-2-yl]amino}phenyl)pyrrolidin-2-one] |  | 2.56 | 
35 | COCCNc1nc(C)c(-c2ccnc(Nc3ccc(F)cc3F)n2)s1 [Example 832, N-(2,4-difluorophenyl)-4-{2-[(2-methoxyethyl)amino]-4-methyl-1,3-thiazol-5-yl}pyrimidine-2-amine] |  | 1.99 | 
36 | CCc1nc(C)c(-c2ccnc(Nc3ccc(F)c(N4CCN(C(C)=O)CC4)c3)n2)s1 [Example 848, N-[3-(4-acetylpiperazin-1-yl)-4-fluorophenyl]-4-(2-ethyl-4-methyl-1,3-thiazol-5-yl)pyrimidine-2-amine] |  | 2.42 | 
37 | Cc1nc(N(C)C)sc1-c1ccnc(Nc2ccc(F)cc2)n1 [Example 849, 4-[2-(dimethylamine)-4-methyl-1,3-thiazol-5-yl]-N-(4-fluorophenyl)pyrimidine-2-amine] |  |  | logP [2]: 1.99*
38 | COc1cc(Nc2nccc(-c3sc(N(C)C)nc3C)n2)cc(OC)c1OC [Example 850, 4-[2-(dimethylamine)-4-methyl-1,3-thiazol-5-yl]-N-(3,4,5-trimethoxyphenyl)pyrimidine-2-amine] |  |  | logP [2]: 1.77*

Reference: US20090030024A1, “THIAZOLES AS FUNGICIDES” (priority 2005, published 2009)
